Inhibition data for ten compounds are collected here from patent publication US8293218B2, “Skin care compositions comprising substituted monoamines” (Conopco, Inc., priority 2010, dated 2012).

In the test the test system is Melanoderm tissue equivalent model MEL-300 containing melanocytes obtained from dark skin individuals. Description: Melanoderm tissue equivalent model MEL-300, total melanin content (inhibition of melanogenesis). It is filed as cell-based. Conditions: Melanocyte, 336 h; 10 μM in maintenance medium, 14 days, total melanin content vs DMSO vehicle control; read-out: Melanoderm (% Reduction at 10 μM). The method, then: Melanoderm tissue equivalent model MEL-300 (MatTek: Ashland, Mass.) containing melanocytes obtained from dark skin individuals were cultured as per supplier instructions. Components were added to the maintenance medium phase (no topical treatments) at a final concentration of 10 μM for 14 days at which time the experiment was terminated and the tissues assessed for melanin content. Medium and treatments were changed three times per week. DMSO was utilized as the vehicle control and all treatments were performed at least in duplicate.
For quantification of total melanin, each Melanoderm was placed into an individual Eppendorf tube (2 mL) into which 250 μL of Solvable™ tissue solubilizer (Packard Bioscience Co., Cat #6NE9100) was added. Each tube was vortexed and incubated at 60° C. for 18 hours. Each sample was then centrifuged (5-minutes at 13,000 RPMs) to remove any particulates. 100 or 200 μL of supernatant were transferred to a 96 well microtiter plate and the absorbance read at 490 nm. Total melanin content was calculated from a standard curve using synthetic melanin (Sigma Cat #M8631). Data was analyzed for significance using the t-test in Microsoft Excel to generate p-values (p-values less than 0.01 represent 99% confidence, p values of 0.05 represent 95% confidence both of which are statistically significant).
For `c1ccc(CCNCc2cccc(Oc3ccccc3)c2)cc1` [Compound 3c, N-(3-phenoxybenzyl)-2-phenylethanamine], the inhibition at 10 µM stood at 68.9%.

`COc1ccc(CCNCCc2ccccc2)cc1OC` [Compound 3h, 2-(3,4-dimethoxyphenyl)-N-phenethylethanamine]: the inhibition at 10 µM is 53.1%.

For `COc1ccc(OC)c(CNCCc2ccccc2)c1` [Compound 3d, N-(2,5-dimethoxybenzyl)-2-phenylethanamine], the inhibition at 10 µM amounted to 60.3%.

Take `COc1ccc(CN(C)CCc2ccccc2)cc1OC` [Compound 7, N-(3,4-dimethoxybenzyl)-N-methyl-2-phenylethanamine]: the inhibition at 10 µM amounted to 44.4%.

Turning to `Cc1ccc(CNCCc2ccccc2)cc1C` [Compound 3e, N-(3,4-dimethylbenzyl)-2-phenylethanamine], the inhibition at 10 µM was determined as 64.5%.

On to `COc1ccc(CNCCc2ccccc2)cc1OC` [Compound 3a, N-(3,4-dimethoxybenzyl)-2-phenylethanamine], for which the inhibition at 10 µM worked out at 40.3%.

With `c1ccc(CCNCC2CCCCC2)cc1` [Compound 3f, N-(cyclohexylmethyl)-2-phenylethanamine], the inhibition at 10 µM was 69.5%.

Regarding `COc1ccc(CNCCC(C)C)cc1OC` [Compound 9, N-(3,4-dimethoxybenzyl)-3-methylbutan-1-amine], the inhibition at 10 µM turned out to be 1.9%.

As to `COc1cc(CNCCc2ccccc2)cc(OC)c1` [Compound 3g, N-(3,5-dimethoxybenzyl)-2-phenylethanamine], the inhibition at 10 µM turned out to be 51.6%.

In the case of `COc1ccc(CNCCc2ccccc2)cc1` [Compound 3b, N-(4-methoxybenzyl)-2-phenylethanamine], the inhibition at 10 µM was found to be 54.4%.
